{
  "source": "patent US20040192554A1",
  "about": "“Technique for effectively treating an agricultural product with a 1-substituted-cyclopropene” (priority 2003, published 2004)",
  "type_in_all_cases": "in vivo",
  "key": {"[1]": {"test_system": "peach (variety \"Yuzora\") fruit", "assay": "Quality deterioration of peach (Yuzora) fruit after storage, Example 7", "conditions": "1 ppm, after storage 25 degrees C 9 days", "description": "Using a peach (variety “Yuzora”) fruit (6 fruits were used per group) as an agricultural product, the following experiment was performed.\n1) A fruit and 1-methylcyclopropene (concentration 1 ppm in a chamber) were placed into a sealed chamber, and contact-treated for 24 hours under a normal pressure.\n(§1) 2) A fruit was placed into a sealed chamber, and a pressure in the chamber was reduced to 25.0 kPa. Subsequently, 1-methylcyclopropene was placed therein to the concentration in the chamber of 1 ppm, and contact-treated for 1 minute under the reduced pressure (25.0 kPa).\nThe fruit which had been subjected to treatment of the above-mentioned 1) or 2) was stored at 25 degrees C for 9 days, and hardness of flesh and was measured. In addition, contact treatment of the above-mentioned 1) or 2) was performed on the next day from harvesting of fruit. In addition, also regarding a fruit undergoing no treatment of 1) or 2) (non-treatment), similar storage was performed, and the above-mentioned index was measured. Further, regarding non-treated fruit, the above-mentioned index before storage was also measured."}, "[2]": {"test_system": "Japanese pear (variety \"Shinsei\") fruit", "assay": "Quality deterioration of Japanese pear (Shinsei) fruit after storage, Example 1", "conditions": "1 ppm, after storage 25 degrees C 2 weeks", "description": "Using a Japanese pear (variety “Shinsei”) fruit (6 fruits were used per group) as an agricultural product, the following experiment was preformed.\n1) A fruit and 1-methylcyclopropene (concentration 1 ppm (parts per million) in a chamber) were placed into a sealed chamber (volume 30L, same in the following Examples), and contact-treated for 1 hour or 16 hours under a normal pressure.\n2) A fruit was placed into a sealed chamber, and a pressure in the chamber was reduced to 12.5 kPa. Subsequently, 1-methylcyclopropene was placed therein to the concentration in the chamber of 1 ppm, and contact-treated for 30 minutes or 1 hour under the reduced pressure (12.5 kPa).\nThe fruit which had been subjected to treatment of above-mentioned 1) or 2) was stored at 25 degrees C for 2 weeks, and hardness of flesh and pH of a fruit juice which is an index for the content of an acid were measured. In addition, browning of flesh and fruit core, which is an index for an extent of storage disorder was assessed by naked eyes. Contact treatment of the above-mentioned 1) or 2) was performed on a day of harvesting a fruit. In addition, also regarding a fruit undergoing no treatment of 1) or 2) (non-treatment), similar storage was performed, and the above-mentioned index was measured and assessed. Further, regarding non-treated fruit, the above-mentioned index before storage was also measured and assessed. Different alpha characters in Table indicate that a significant difference was recognized at a risk rate of 5% (multiple range test of Newman-Keuls). In Tables showing the results of the following Examples 1 to 10, “1-MCP” denotes 1-methylcyclopropene."}, "[3]": {"test_system": "apple (variety \"Orin\") fruit", "assay": "Quality deterioration of apple (Orin) fruit after storage, Example 6", "conditions": "1 ppm, after storage 25 degrees C 3 weeks", "description": "Using an apple (variety “Orin”) fruit (6 fruits were used per group) as an agricultural product, the following experiment was performed.\n1) A fruit and 1-methylcyclopropene (concentration 1 ppm in a chamber) were placed into a sealed chamber, and contact-treated for 16 hours under a normal pressure.\n2) A fruit was placed into a sealed chamber, and a pressure in the chamber was reduced to 25.0 kPa. Subsequently, 1-methylcyclopropene was placed therein to the concentration in the chamber of 1 ppm, and contact-treated for 1 hour under the reduced pressure (25.0 kPa).\n3) A fruit was placed into a sealed chamber. Subsequently, a pressure in the chamber was reduced to 25.0 kPa, and the fruit was kept in the chamber for 1 hour under the reduced pressure (25.0 kPa).\nThe fruit which had been subjected to treatment of the above-mentioned 1), 2) or 3) was stored at 25 degrees C for 3 weeks, and hardness of flesh and mealy of flesh were measured. In addition, treatments of the above-mentioned 1), 2) and 3) were performed regarding fruits which had been stored for about 1 month after harvesting of fruit. In addition, also regarding a fruit undergoing no treatment of 1), 2) or 3) (non-treatment), similar storage was performed, and the above-mentioned index was measured. Further, regarding non-treated fruit, the above-mentioned index before storage was also measured. Different alpha characters in Table 6 indicate that a significant difference was recognized at a risk rate of 5% (multiple range test of Newman-Keuls)."}, "[4]": {"test_system": "peach (variety \"Akatsuki\") fruit", "assay": "Quality deterioration of peach (Akatsuki) fruit after storage, Example 9", "conditions": "1 ppm, after storage 25 degrees C 5 days, treated day after harvest", "description": "Using a peach (variety “Akatsuki”) fruit (6 fruits were used per group) as an agricultural product, the following experiment was performed.\nas §1, with “1)” for “2)”, “kPa). Then, the pressure was returned to a normal pressure, and contact treatment was carried out for 12 hours while the concentration of 1-methylcyclopropene in the chamber was maintained at 1 ppm.” for “kPa).”\n2) A fruit was placed into a sealed chamber, and a pressure in the chamber was reduced to 25.0 kPa. Subsequently, 1-methylcyclopropene was placed therein to the concentration in the chamber of 1 ppm, and contact-treated for 12 hours under the reduced pressure (25.0 kPa).\nThe fruit which had been subjected to treatment of the above-mentioned 1) or 2) was stored at 25 degrees C for 5 days, and hardness of flesh was measured. […] In addition, also regarding a fruit undergoing no treatment of 1) or 2) (non-treatment), similar storage was performed, and the above-mentioned index was measured. Further, regarding a non-treated fruit, the above-mentioned index before storage was also measured. […]"}, "[5]": {"conditions": "Reduced pressure (12.5 kPa) 30 minutes"}, "[6]": {"conditions": "Reduced pressure (12.5 kPa) 1 hour"}, "[7]": {"conditions": "Reduced pressure (25.0 kPa) 1 hour"}},
  "data": [
    {"smiles": "CC1=CC1", "note": "[1-MCP, 1-methylcyclopropene]", "values": [
      {"measurement": "Hardness of flesh", "setting": "[1]; Normal pressure 24 hours", "result": 4.38, "unit": "N"},
      {"measurement": "Hardness of flesh", "setting": "[1]; Reduced pressure (25.0 kPa) 1 minute", "result": 4.24, "unit": "N"},
      {"measurement": "Hardness of flesh", "setting": "[2]; Normal pressure 1 hour", "result": 16.46, "unit": "a N"},
      {"measurement": "Presence or absence of browning", "setting": "[2]; Normal pressure 1 hour", "result": "Presence"},
      {"measurement": "pH of fruit juice", "setting": "[2]; Normal pressure 1 hour", "result": 5.07},
      {"measurement": "Hardness of flesh", "setting": "[2]; Normal pressure 16 hours", "result": 21.17, "unit": "b N"},
      {"measurement": "Presence or absence of browning", "setting": "[2]; Normal pressure 16 hours", "result": "Absence"},
      {"measurement": "pH of fruit juice", "setting": "[2]; Normal pressure 16 hours", "result": 5.07},
      {"measurement": "Hardness of flesh", "setting": "[2]; [5]", "result": 20.58, "unit": "b N"},
      {"measurement": "Presence or absence of browning", "setting": "[2]; [5]", "result": "Slight"},
      {"measurement": "pH of fruit juice", "setting": "[2]; [5]", "result": 5.10},
      {"measurement": "Hardness of flesh", "setting": "[2]; [6]", "result": 20.97, "unit": "b N"},
      {"measurement": "Presence or absence of browning", "setting": "[2]; [6]", "result": "Absence"},
      {"measurement": "pH of fruit juice", "setting": "[2]; [6]", "result": 4.97},
      {"measurement": "Hardness of flesh", "setting": "[3]; Normal pressure 16 hours", "result": 42.06, "unit": "ab N"},
      {"measurement": "Mealy of flesh", "setting": "[3]; Normal pressure 16 hours", "result": "Slight"},
      {"measurement": "Hardness of flesh", "setting": "[3]; [7]", "result": 44.02, "unit": "b N"},
      {"measurement": "Mealy of flesh", "setting": "[3]; [7]", "result": "Slight"},
      {"measurement": "Hardness of flesh", "setting": "[4]; Normal pressure 12 hours after reduced pressure (25.0 kPa) 1 minute", "result": 4.39, "unit": "a N"},
      {"measurement": "Hardness of flesh", "setting": "[4]; Reduced pressure (25.0 kPa) 12 hours", "result": 7.11, "unit": "b N"}
    ]}
  ]
}
